Results as given in BindingDB's records for doi:10.1016/j.bmc.2015.10.001 (Seoul National University, 2015).

Biological target: Transient receptor potential cation channel subfamily V member 1 (Homo sapiens, UniProt Q8NER1)
Experiment: Antagonist activity at human TRPV1 heterologously expressed in CHO cells assessed as inhibition of capsaicin-induced activation by FLIPR assay

Transient receptor potential cation channel subfamily V member 1, sequence (Q8NER1 whole entry): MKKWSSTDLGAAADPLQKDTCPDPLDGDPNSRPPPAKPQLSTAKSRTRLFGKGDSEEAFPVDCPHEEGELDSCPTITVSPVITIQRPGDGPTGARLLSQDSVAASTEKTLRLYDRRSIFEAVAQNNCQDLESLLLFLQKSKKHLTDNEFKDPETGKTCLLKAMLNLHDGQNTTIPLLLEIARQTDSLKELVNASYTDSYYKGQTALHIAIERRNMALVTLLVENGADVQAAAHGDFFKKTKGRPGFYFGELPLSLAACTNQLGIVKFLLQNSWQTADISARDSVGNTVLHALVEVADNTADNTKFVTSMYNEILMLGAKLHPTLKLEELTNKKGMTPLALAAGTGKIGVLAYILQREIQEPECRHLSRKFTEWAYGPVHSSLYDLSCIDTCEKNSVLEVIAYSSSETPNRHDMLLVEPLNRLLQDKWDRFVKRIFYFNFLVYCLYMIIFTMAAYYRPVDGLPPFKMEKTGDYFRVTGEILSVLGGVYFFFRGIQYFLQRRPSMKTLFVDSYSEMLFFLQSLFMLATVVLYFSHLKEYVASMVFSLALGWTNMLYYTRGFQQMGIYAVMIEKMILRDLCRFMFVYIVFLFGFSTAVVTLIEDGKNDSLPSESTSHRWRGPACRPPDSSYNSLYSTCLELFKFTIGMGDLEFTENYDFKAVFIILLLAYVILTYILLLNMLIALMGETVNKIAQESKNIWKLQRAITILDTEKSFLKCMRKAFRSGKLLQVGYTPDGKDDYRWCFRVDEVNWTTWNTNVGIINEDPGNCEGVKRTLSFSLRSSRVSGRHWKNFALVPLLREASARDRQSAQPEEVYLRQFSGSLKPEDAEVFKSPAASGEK

CCCCCOc1cc(C(F)(F)F)ccc1CNC(=O)C(C)c1ccc(NS(C)(=O)=O)c(F)c1 (stereo unspecified)
Ki: 700 pM
